Test results taken from ChEMBL document CHEMBL1124016, “Antihypertensive activity in a series of 1-piperazino-3-phenylindans with potent 5-HT2-antagonistic activity” (J Med Chem, 1988).

Key:
[1] = biological target: Serotonin 2 (5-HT2) receptor (Rattus norvegicus, UniProt P30994+P08909+P14842); test: Inhibition of [3H]spiperone binding to 5-hydroxytryptamine 2 receptor from rat cortical membranes; assay type: cell membranes, Membrane
Rattus norvegicus [2] = test: Percent reduction of diastolic arterial blood pressure(DAP) in spontaneously hypertensive rat after 10 min at intraperitoneal administration of 5 mg/kg; assay type: functional
[3] = biological target: T1, Adrenergic receptor alpha-1 (Rattus norvegicus, UniProt P15823+P23944+P43140); test: Inhibition of [3H]prazosin binding to alpha-1 adrenergic receptor from rat cortical membranes; assay type: cell membranes, Membrane
T1 sequence (P15823 whole entry): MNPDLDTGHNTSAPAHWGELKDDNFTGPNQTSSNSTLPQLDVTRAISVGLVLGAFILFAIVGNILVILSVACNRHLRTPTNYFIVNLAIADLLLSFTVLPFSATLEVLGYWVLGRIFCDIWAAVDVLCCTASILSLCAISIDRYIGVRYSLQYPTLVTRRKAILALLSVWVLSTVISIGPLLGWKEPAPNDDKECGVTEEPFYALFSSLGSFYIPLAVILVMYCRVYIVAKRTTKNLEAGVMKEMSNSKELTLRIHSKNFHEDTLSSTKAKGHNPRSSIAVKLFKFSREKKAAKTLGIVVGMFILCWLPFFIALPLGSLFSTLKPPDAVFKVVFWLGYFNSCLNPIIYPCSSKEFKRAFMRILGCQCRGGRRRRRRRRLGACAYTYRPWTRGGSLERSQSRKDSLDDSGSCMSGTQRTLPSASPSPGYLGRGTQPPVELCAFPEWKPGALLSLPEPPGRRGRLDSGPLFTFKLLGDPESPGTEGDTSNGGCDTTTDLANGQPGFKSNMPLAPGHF
T1 sequence (P23944 whole entry): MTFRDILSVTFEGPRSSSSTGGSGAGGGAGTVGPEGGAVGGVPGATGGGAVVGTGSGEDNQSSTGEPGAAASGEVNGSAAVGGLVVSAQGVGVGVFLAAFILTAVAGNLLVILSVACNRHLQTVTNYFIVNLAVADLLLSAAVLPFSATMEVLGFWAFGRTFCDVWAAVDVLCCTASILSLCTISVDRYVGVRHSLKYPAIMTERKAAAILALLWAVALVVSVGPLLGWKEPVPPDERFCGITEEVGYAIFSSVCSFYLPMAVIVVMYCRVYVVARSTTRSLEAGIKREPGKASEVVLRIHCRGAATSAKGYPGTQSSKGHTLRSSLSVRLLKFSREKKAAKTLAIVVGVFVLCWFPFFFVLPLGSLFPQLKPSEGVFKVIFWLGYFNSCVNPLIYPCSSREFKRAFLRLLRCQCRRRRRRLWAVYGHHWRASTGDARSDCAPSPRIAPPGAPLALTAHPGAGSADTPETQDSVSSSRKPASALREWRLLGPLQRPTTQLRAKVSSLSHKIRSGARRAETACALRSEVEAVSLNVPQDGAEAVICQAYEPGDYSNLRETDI
T1 sequence (P43140 whole entry): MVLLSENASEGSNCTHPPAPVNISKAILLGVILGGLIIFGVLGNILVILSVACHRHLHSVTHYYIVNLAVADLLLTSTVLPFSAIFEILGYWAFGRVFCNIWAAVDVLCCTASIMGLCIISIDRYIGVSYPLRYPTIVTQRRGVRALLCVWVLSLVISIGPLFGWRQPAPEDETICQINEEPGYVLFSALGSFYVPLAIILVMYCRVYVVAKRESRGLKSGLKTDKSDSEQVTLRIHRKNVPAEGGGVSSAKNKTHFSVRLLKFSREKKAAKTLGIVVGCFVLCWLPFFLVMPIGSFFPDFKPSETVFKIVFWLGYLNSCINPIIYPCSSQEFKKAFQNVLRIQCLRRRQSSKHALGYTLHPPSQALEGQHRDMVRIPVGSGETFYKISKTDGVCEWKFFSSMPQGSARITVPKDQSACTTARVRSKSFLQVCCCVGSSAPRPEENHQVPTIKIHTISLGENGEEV

Rattus norvegicus [4] = test: Percent reduction of systolic arterial blood pressure(SAP) in spontaneously hypertensive rat after 10 min at intraperitoneal administration of 5 mg/kg; assay type: functional
D(2) dopamine receptor = D(2) dopamine receptor (Rattus norvegicus, UniProt P61169); test: Inhibition of [3H]spiperone binding to Dopamine receptor D2 from rat striatal membranes; assay type: cell membranes, Membrane
Mus musculus = species on record: Mus musculus; test: Inhibition of methyl phenidate induced stereotyped gnawing in mice; assay type: functional
Rattus norvegicus [5] = test: Percent reduction of blood pressure in spontaneously hypertensive rat after 10 min at intraperitoneal administration of 5 mg/kg; assay type: functional
Rattus norvegicus [6] = species on record: Rattus norvegicus; test: Ratio of phenylephrine ED50/ 5-HT ED50; assay type: functional
Rattus norvegicus [7] = test: Inhibition of 5-HT induced pressor response in pithed rats, after intravenous administration; assay type: functional
Rattus norvegicus [8] = test: Inhibition of 5-HT induced pressor response in pithed rats, after intravenous administration, activity is expressed as ED50; assay type: functional
Rattus norvegicus [9] = species on record: Rattus norvegicus; test: Inhibition of L-5-HTP (L-5-hydroxytryptophan) induced head twitches in rat; assay type: functional
Rattus norvegicus [10] = test: Inhibition of phenylephrine induced pressor response in pithed rats (following i.v. administration of […]); assay type: functional; details: route intravenous
Rattus norvegicus [11] = test: Inhibition of 5-HT induced pressor response in pithed rats, after intravenous administration of 0.02 mg/kg; assay type: functional
[12] = Rattus norvegicus, read-out: ED50

Chain of D(2) dopamine receptor (P61169 whole entry): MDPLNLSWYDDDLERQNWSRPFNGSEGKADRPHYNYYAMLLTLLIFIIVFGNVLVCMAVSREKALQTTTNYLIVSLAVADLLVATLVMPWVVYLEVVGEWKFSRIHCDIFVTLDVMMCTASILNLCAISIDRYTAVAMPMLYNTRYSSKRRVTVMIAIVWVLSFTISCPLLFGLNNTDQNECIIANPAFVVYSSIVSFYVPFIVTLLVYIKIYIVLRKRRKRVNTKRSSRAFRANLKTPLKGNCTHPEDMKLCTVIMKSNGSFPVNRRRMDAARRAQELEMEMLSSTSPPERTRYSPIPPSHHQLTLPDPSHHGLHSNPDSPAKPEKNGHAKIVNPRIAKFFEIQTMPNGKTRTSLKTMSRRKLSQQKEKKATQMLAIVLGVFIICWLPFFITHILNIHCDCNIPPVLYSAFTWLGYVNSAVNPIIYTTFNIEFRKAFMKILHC

Row | Structure (SMILES) | IC50 [1] [nM] | Increase (Rattus norvegicus [2]) [%] | IC50 [3] [nM] | Reduction (Rattus norvegicus [4]) [%] | IC50 (D(2) dopamine receptor) [nM] | ED50 (Mus musculus) [µmol/kg] | Reduction (Rattus norvegicus [5]) [%] | Ratio (Rattus norvegicus [6]) | ED50 (Rattus norvegicus [7]) [µmol/kg] | ED50 (Rattus norvegicus [8]) [µmol/kg] | Reduction (Rattus norvegicus [2]) [%] | ED50 (Rattus norvegicus [9]; [12]) [µmol/kg] | Change (Rattus norvegicus [10]) [%] | Change (Rattus norvegicus [11]) [%] | ED50 (Rattus norvegicus [9]) [µmol/kg] | Increase (Rattus norvegicus [4]) [%]
1 | CC(C)N1CCN(CCN2CCN(C3CC(c4ccc(F)cc4)c4ccc(F)cc43)CC2)C1=O.Cl.Cl (stereo not given) | 4.8 | 0 | 28 | -5 | 35 | > 73 |  |  |  |  |  |  |  |  |  | 
2 | Fc1ccc(C2CC(N3CCN(CCN4CCN=C4S)CC3)c3cc(F)ccc32)cc1 (stereo not given) | 4.9 |  |  |  |  |  | -10 | 370 | 0.01 |  |  |  |  |  |  | 
3 | O=C1NCCN1CCN1CCN(C2CC(c3ccc(F)cc3)c3ccc(F)cc32)CC1 (stereo not given) | 6.5 |  | 24 | -13 | 200 | > 47 |  | 153 |  | 2.6 | -19 |  |  |  |  | 
4 | CN1CCN(CCN2CCN([C@@H]3C[C@@H](c4ccc(F)cc4)c4ccc(F)cc43)CC2)C1=O | 10 |  | 11 |  | 38 |  | -32 | 550 | 0.0043 | 2.2 |  | 0.023 | -29 |  |  | 
5 | OCCN1CCN(C2CC(c3ccc(F)cc3)c3ccccc32)CC1 (stereo not given) | 64 |  | 62 |  | 680 | > 118 | -27 | 10 | 0.33 | 3.4 |  | 0.46 | -12 | -15 |  | 
6 | O=C1NCCN1CCN1CCN(C2CC(c3ccc(F)cc3)c3ccccc32)CC1 (stereo not given) | 4.2 |  | 33 | -33 | 930 | > 98 |  | 129 |  | 3.1 | -43 |  |  |  |  | 
7 | O.OC1=NCCN1CCN1CCN(C2CC(c3ccc(O)cc3)c3ccccc32)CC1 (stereo not given) | 310 |  | 560 | -6 | 4000 | > 98 |  |  |  |  | -6 |  | 22 | -5 | > 49 | 
8 | Cl.Cl.O=c1[nH]c2ccccc2c(=O)n1CCN1CCN(C2CC(c3ccc(F)cc3)c3ccccc32)CC1 (stereo not given) | 3.4 |  | 5.5 |  | 60 | > 70 | -22 | 7.7 | 0.1 | 0.77 |  | 4.4 | -42 | -35 |  | 
9 | O=C1NCCN1CCN1CCN(C2CCc3ccccc32)CC1 (stereo not given) | 5100 | 6 |  |  | 62000 | > 127 |  |  |  |  |  |  |  |  | > 8 | 5
10 | Cl.Cl.OC1=NCCN1CCCN1CCN(C2CC(c3ccc(F)cc3)c3ccc(F)cc32)CC1 (stereo not given) | 5.6 |  | 12 | -12 | 46 | 55 |  | 87 |  | 2.7 | -19 |  |  |  | 2 | 
11 | CN1CCN(CCN2CCN([C@H]3C[C@H](c4ccc(F)cc4)c4ccc(F)cc43)CC2)C1=O | 410 |  | 1300 |  | 8500 | > 91 |  |  |  |  | -1 |  | 72 | -6 | > 45 | 1
12 | CN1CCN(CCN2CCN(C3CC(c4ccc(F)cc4)c4ccc(F)cc43)CC2)C1=O.Cl.Cl (stereo not given) | 3.3 |  | 11 |  | 260 | > 78 | -11 | 1300 | 0.01 | 13 |  | 0.078 |  |  |  | 
13 | Cl.Cl.O.O=C1OCCN1CCN1CCN(C2CC(c3ccc(F)cc3)c3ccc(F)cc32)CC1 (stereo not given) | 44 |  |  |  |  |  | -20 | 5.2 |  | 4.4 |  |  | 19 | -27 |  | 
14 | OCCN1CCN([C@@H]2C[C@@H](c3ccc(F)cc3)c3ccc(C(F)(F)F)cc32)CC1 (racemic) [TEFLUDAZINE] | 8.4 |  | 17 | -18 | 16 | 0.071 |  | 69 | 0.035 | 2.4 | -24 |  |  |  |  | 
15 | O.O=c1[nH]c2ccccc2c(=O)n1CCN1CCN(C2CC(c3ccc(F)cc3)c3ccc(F)cc32)CC1 (stereo not given) | 2.9 |  | 5.3 | -29 | 19 | > 79 |  | 13 | 0.032 | 0.43 | -46 |  | -57 | -52 | 2.3 | 
16 | Cl.Cl.O=C1OCCN1CCN1CCN(C2CC(c3ccc(F)cc3)c3ccccc32)CC1 (stereo not given) | 130 |  |  | -15 |  | > 83 |  |  |  |  | -19 |  |  |  |  | 
